Experiments:
Assay type in all cases: in vivo, human
[1] = test system: patients with mild to moderate aortic stenosis; test: Lab measures (chemistry panel) in ramipril pilot study
Method: (§1) Clinical Protocol: This pilot study enrolled 8 patients with mild to moderate aortic stenosis, normal left ventricular (LV) function and no history of coronary artery disease. […] Patients then were placed on the ACE inhibitor ramipril, 2.5 mg qd for 2 weeks followed by up-titration at 2 week intervals to 2.5 mg bid, 5 mg bid and 7.5 mg bid. The study lasted 8 weeks. Vital signs were repeated weekly, chemistry panels every 2 weeks and echocardiograms every 4 weeks.

[2] = test system: patients with mild to moderate aortic stenosis; test: Clinical follow up (vital signs, symptoms) in ramipril pilot study; conditions: for HR sitting / HR supine: in bpm (unit assumed); for DBP supine / SBP supine: in mmHg
Method: as §1

[3] = test system: patients with mild to moderate aortic stenosis; test: Echo measures (echocardiogram) in ramipril pilot study
Method: as §1

[4] = Week 1, ramipril dose 2.5 × 1, n = 8, mean±SD
[5] = Week 1, ramipril dose 2.5 × 1, n = 8
[6] = Week 2, ramipril dose 2.5 × 1, n = 8, mean±SD
[7] = Week 2, ramipril dose 2.5 × 1, n = 8
[8] = Week 3, ramipril dose 2.5 × 2, n = 8, mean±SD
[9] = Week 3, ramipril dose 2.5 × 2, n = 8
[10] = Week 4, ramipril dose 2.5 × 2, n = 8, mean±SD
[11] = Week 4, ramipril dose 2.5 × 2, n = 8
[12] = Week 5, ramipril dose 5 × 2, n = 8, mean±SD
[13] = Week 5, ramipril dose 5 × 2, n = 8
[14] = Week 6, ramipril dose 5 × 2, n = 8, mean±SD
[15] = Week 6, ramipril dose 5 × 2, n = 8
[16] = Week 7, ramipril dose 7.5 × 2, n = 8, mean±SD
[17] = Week 7, ramipril dose 7.5 × 2, n = 8
[18] = Week 8 (final), ramipril dose 7.5 × 2, n = 8, mean±SD
[19] = Week 8 (final), ramipril dose 7.5 × 2, n = 8, mean±SD, listed as Ramipril
[20] = Week 8, ramipril dose 7.5 × 2, n = 8
[21] = count among n = 8, Week 1, ramipril dose 2.5 × 1
[22] = count among n = 8, Week 2, ramipril dose 2.5 × 1
[23] = count among n = 8, Week 3, ramipril dose 2.5 × 2
[24] = count among n = 8, Week 4, ramipril dose 2.5 × 2
[25] = count among n = 8, Week 5, ramipril dose 5 × 2
[26] = count among n = 8, Week 6, ramipril dose 5 × 2
[27] = count among n = 8, Week 7, ramipril dose 7.5 × 2
[28] = count among n = 8, Week 8, ramipril dose 7.5 × 2

Creatinine ([1]; Week 1, n = 8, mean±SD): 1.1 ± 0.3 mg/dL
Glucose ([1]; Week 1, n = 8, mean±SD): 97 ± 29 mg/dL
Potassium ([1]; Week 1, n = 8, mean±SD): 4.3 ± 0.3 mEq/L
Creatinine ([1]; Week 3, n = 8, mean±SD): 1.2 ± 0.4 mg/dL
Glucose ([1]; Week 3, n = 8, mean±SD): 96 ± 15 mg/dL
Potassium ([1]; Week 3, n = 8, mean±SD): 4.4 ± 0.4 mEq/L
Creatinine ([1]; Week 5, n = 8, mean±SD): 1.1 ± 0.3 mg/dL
Glucose ([1]; Week 5, n = 8, mean±SD): 91 ± 18 mg/dL
Potassium ([1]; Week 5, n = 8, mean±SD): 4.3 ± 0.5 mEq/L
Creatinine ([1]; Week 7, n = 8, mean±SD): 1.1 ± 0.3 mg/dL
Glucose ([1]; Week 7, n = 8, mean±SD): 91 ± 19 mg/dL
Potassium ([1]; Week 7, n = 8, mean±SD): 4.4 ± 0.5 mEq/L
Creatinine ([1]; final measurement, mean±SD): 1.1 ± 0.3 mg/dL
Glucose ([1]; final measurement, mean±SD): 91 ± 18 mg/dL
Potassium ([1]; final measurement, mean±SD): 4.3 ± 0.5 mEq/L
AS-Jet (aortic stenosis jet velocity) ([3]; Week4, n = 8, mean±SD): 2.8 ± 0.2 m/sec
Cardiac output ([3]; Week4, n = 8, mean±SD): 5.9 ± 1.5 L/min
LVEF ([3]; Week4, n = 8, mean±SD): 73 ± 4%
LVOT-velocity (left ventricular outflow tract velocity) ([3]; Week4, n = 8, mean±SD): 1.1 ± 0.1 m/sec
AS-Jet (aortic stenosis jet velocity) ([3]; Week8 (final), n = 8, mean±SD): 2.8±0.3 m/sec
Cardiac output ([3]; Week8 (final), n = 8, mean±SD): 5.7 ± 1.4 L/min
LVEF ([3]; Week8 (final), n = 8, mean±SD): 71±7%
LVOT-velocity (left ventricular outflow tract velocity) ([3]; Week8 (final), n = 8, mean±SD): 1.0±0.2 m/sec
Compound: CCOC(=O)[C@H](CCc1ccccc1)N[C@@H](C)C(=O)N1[C@H](C(=O)O)C[C@@H]2CCC[C@@H]21 [ramipril]
DBP sitting [2, 4]: 67 ± 9 mmHg
SBP sitting [2, 4]: 109 ± 17 mmHg
HR sitting [2, 5]: 60 ± 9
HR supine [2, 5]: 58 ± 5
DBP supine [2, 5]: 62 ± 5
SBP supine [2, 5]: 106 ± 15
DBP sitting [2, 6]: 65 ± 8 mmHg
SBP sitting [2, 6]: 113 ± 16 mmHg
HR sitting [2, 7]: 61 ± 8
HR supine [2, 7]: 63 ± 6
DBP supine [2, 7]: 60 ± 9
SBP supine [2, 7]: 110 ± 12
DBP sitting [2, 8]: 65 ± 8 mmHg
SBP sitting [2, 8]: 111 ± 15 mmHg
HR sitting [2, 9]: 62 ± 8
HR supine [2, 9]: 62 ± 11
DBP supine [2, 9]: 60 ± 7
SBP supine [2, 9]: 107 ± 14
DBP sitting [2, 10]: 64 ± 5 mmHg
SBP sitting [2, 10]: 112 ± 16 mmHg
HR sitting [2, 11]: 65 ± 7
HR supine [2, 11]: 64 ± 7
DBP supine [2, 11]: 64 ± 8
SBP supine [2, 11]: 111 ± 14
DBP sitting [2, 12]: 67 ± 9 mmHg
SBP sitting [2, 12]: 116 ± 17 mmHg
HR sitting [2, 13]: 62 ± 6
HR supine [2, 13]: 61 ± 7
DBP supine [2, 13]: 69 ± 10
SBP supine [2, 13]: 116 ± 17
DBP sitting [2, 14]: 65 ± 4 mmHg
SBP sitting [2, 14]: 118 ± 20 mmHg
HR sitting [2, 15]: 61 ± 8
HR supine [2, 15]: 61 ± 5
DBP supine [2, 15]: 65 ± 6
SBP supine [2, 15]: 114 ± 20
DBP sitting [2, 16]: 70 ± 10 mmHg
SBP sitting [2, 16]: 121 ± 13 mmHg
HR sitting [2, 17]: 61 ± 4
HR supine [2, 17]: 61 ± 6
DBP supine [2, 17]: 72 ± 6
SBP supine [2, 17]: 121 ± 13
DBP sitting [2, 18]: 65±10 mmHg
SBP sitting [2, 18]: 114±14 mmHg
DBP sitting [2, 19]: 65 ± 10 mmHg
SBP sitting [2, 19]: 114 ± 14 mmHg
HR sitting ([2]; Week 8 (final), ramipril dose 7.5 × 2, n = 8): 62±3
HR sitting ([2]; Week 8 (final), ramipril dose 7.5 × 2, n = 8, listed as Ramipril): 62 ± 3
HR supine [2, 20]: 62 ± 3
DBP supine [2, 20]: 63 ± 6
SBP supine [2, 20]: 120 ± 15
Cough [2, 21]: 0
Ghest pain [2, 21]: 0
Hyper-sensitivity [2, 21]: 0
Light-headedness [2, 21]: 0
Cough [2, 22]: 0
Ghest pain [2, 22]: 0
Hyper-sensitivity [2, 22]: 0
Light-headedness [2, 22]: 0
Cough [2, 23]: 0
Ghest pain [2, 23]: 0
Hyper-sensitivity [2, 23]: 0
Light-headedness [2, 23]: 0
Cough [2, 24]: 0
Ghest pain [2, 24]: 0
Hyper-sensitivity [2, 24]: 0
Light-headedness [2, 24]: 0
Cough [2, 25]: 0
Ghest pain [2, 25]: 0
Hyper-sensitivity [2, 25]: 0
Light-headedness [2, 25]: 0
Cough [2, 26]: 2
Ghest pain [2, 26]: 1
Hyper-sensitivity [2, 26]: 0
Light-headedness [2, 26]: 0
Cough [2, 27]: 0
Ghest pain [2, 27]: 0
Hyper-sensitivity [2, 27]: 0
Light-headedness [2, 27]: 0
Cough [2, 28]: 1
Ghest pain [2, 28]: 1
Hyper-sensitivity [2, 28]: 0
Light-headedness [2, 28]: 1

— patent US20040057955A1, “Methods of inhibition of stenosis and/or sclerosis of the aortic valve” (priority 2003, published 2004)
